In patent US20230117034A1, “PYRAZOLOTRIAZINES” (Bayer Aktiengesellschaft, priority 2019, published 2023) one finds IC50 data, which are given here for nine compounds.

One assay addresses CDK12/CycK (Homo sapiens, UniProt Q9NYV4). In words: CDK12/CycK high ATP kinase assay (TR-FRET, 2 mM ATP). Format: biochemical. The following applies: 2 mM ATP (high ATP); median; read-out: CDK12/CyclinK, 2 mM ATP (high ATP), IC50-[mol/l] (median). In short, it runs like this: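 His-tagged human CDK12/CycK (~0.75 nM) pre-incubated 15 min with compound, then 60 min at 22 °C with 2 mM ATP and 1 µM biotinylated peptide (HEPES pH 7.5, 20 mM MgCl2). EDTA stop; phospho-Ser62 antibody/Eu anti-rabbit and streptavidin-XL665 TR-FRET, 665/620 nm ratio normalised to give IC50.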
A general note: TR-FRET usually uses a lanthanide donor and a delayed reading to cut background.

Another assay addresses T1, CDK2/CycE (Homo sapiens, UniProt P24941).
T1 construct: purchased ProQinase GmbH (Freiburg, Germany); host or cells: insect cells (Sf9)
Put plainly: CDK2/CycE kinase assay (TR-FRET, 2 mM ATP). To be noted: 2 mM ATP (high ATP); median; read-out: CDK2/CyclinE, 2 mM ATP (high ATP), IC50 (median). The class given is biochemical. The method in brief: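 GST-tagged human CDK2 and CycE from Sf9 cells, about 10 ng/ml, pre-incubated 15 min at 22 °C with compound in Tris/HCl pH 8.0 buffer. Reaction with 2 mM ATP and 0.75 µM biotinylated peptide for 25 min at 22 °C. Phospho-RB antibody TR-FRET (665/620 nm ratio) read after 1 h; data normalised to no-inhibitor and no-enzyme controls.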

Sequence of CDK12/CycK (Q9NYV4 with tags, fused parts or gaps): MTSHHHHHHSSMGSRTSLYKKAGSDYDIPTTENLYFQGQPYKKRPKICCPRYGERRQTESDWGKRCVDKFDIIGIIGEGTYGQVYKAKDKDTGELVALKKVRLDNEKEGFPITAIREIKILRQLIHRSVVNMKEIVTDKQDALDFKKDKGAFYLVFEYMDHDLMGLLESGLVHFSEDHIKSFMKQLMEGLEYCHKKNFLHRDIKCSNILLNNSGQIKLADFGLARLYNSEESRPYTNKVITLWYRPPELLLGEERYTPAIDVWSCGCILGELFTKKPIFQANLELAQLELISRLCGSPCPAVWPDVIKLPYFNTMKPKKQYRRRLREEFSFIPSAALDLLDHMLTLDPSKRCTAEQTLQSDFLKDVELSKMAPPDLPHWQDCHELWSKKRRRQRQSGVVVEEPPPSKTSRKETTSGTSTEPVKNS
Sequence of CDK12/CycK (O75909 1-300 partner limits assumed): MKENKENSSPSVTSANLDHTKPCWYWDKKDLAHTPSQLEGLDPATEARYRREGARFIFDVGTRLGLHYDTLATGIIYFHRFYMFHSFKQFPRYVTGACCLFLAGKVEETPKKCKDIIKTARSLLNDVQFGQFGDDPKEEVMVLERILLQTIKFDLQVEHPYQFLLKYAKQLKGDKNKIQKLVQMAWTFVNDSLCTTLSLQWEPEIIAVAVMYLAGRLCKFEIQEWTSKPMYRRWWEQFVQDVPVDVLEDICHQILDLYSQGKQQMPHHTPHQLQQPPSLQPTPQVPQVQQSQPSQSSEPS

Take `Fc1ccc(-c2cnn3c(NCc4nc5ccccc5[nH]4)nc(N4CCOCC4)nc23)cc1` [Example 106, N-[(1H-benzimidazol-2-yl)methyl]-8-(4-fluorophenyl)-2-(morpholin-4-yl)pyrazolo[1,5-a][1,3,5]triazin-4-amine]: the results for the IC50 on CDK12/CycK and on CDK2/CycE were more than 9.99 µM and more than 20 µM, respectively.
Turning to `Brc1cnn2c(NCc3nc4ccccc4[nH]3)nc(N3CCN4CCC[C@H]4C3)nc12` [Example 148, N-[(1H-benzimidazol-2-yl)methyl]-8-bromo-2-[(8aS)-hexahydropyrrolo[1,2-a]pyrazin-2 (1 H)-yl]pyrazolo[1,5-a][1,3,5]triazin-4-amine], the IC50 on CDK12/CycK was found to be 10.8 µM; at CDK2/CycE it was 12.6 µM.
Consider `[O-][S+]1CCN(c2nc(NCc3nc4ccccc4[nH]3)n3ncc(Br)c3n2)CC1` [Example 144, 4-(4-{[(1H-benzimidazol-2-yl)methyl]amino}-8-bromopyrazolo[1,5-a][1,3,5]triazin-2-yl)-1lambda^4-thiomorpholin-1-one], for which the IC50 is 3.72 µM at CDK12/CycK and 7.81 µM on CDK2/CycE.
As to `Cc1ccc(-c2nnc(CNc3nc(N4CCOCC4)nc4c(Br)cnn34)[nH]2)cc1F` [Example 98, 8-bromo-N-{[5-(3-fluoro-4-methylphenyl)-4H-1,2,4-triazol-3-yl]methyl}-2-(morpholin-4-yl)pyrazolo[1,5-a][1,3,5]triazin-4-amine], the IC50 at CDK12/CycK is 1.08 µM; on CDK2/CycE, 2.03 µM.
The matching figures for `Cc1ccc2[nH]c(CNc3nc(N4CCN(C)CC4)nc4c(Br)cnn34)nc2c1` [Example 158, 8-bromo-N-[(5-methyl-1H-benzimidazol-2-yl)methyl]-2-(4-methylpiperazin-1-yl)pyrazolo[1,5-a][1,3,5]triazin-4-amine]: 4.46 µM and 5.3 µM.
The matching figures for `Brc1cnn2c(NCc3nnc(-c4ccccc4)[nH]3)nc(N3C[C@@H]4C[C@H]3CO4)nc12` [Example 120, 8-bromo-2-[(1S,4S)-2-oxa-5-azabicyclo[2.2.1]heptan-5-yl]-N-[(5-phenyl-4H-1,2,4-triazol-3-yl)methyl]pyrazolo[1,5-a][1,3,5]triazin-4-amine]: 13.2 µM and 15.4 µM.
Regarding `CN1CCN(c2nc(NCc3nc4c(F)c(F)ccc4[nH]3)n3ncc(Br)c3n2)CC1` [Example 133, 8-bromo-N-[(4,5-difluoro-1H-benzimidazol-2-yl)methyl]-2-(4-methylpiperazin-1-yl)pyrazolo[1,5-a][1,3,5]triazin-4-amine], the IC50 is 7.01 µM at CDK12/CycK and 15.1 µM on CDK2/CycE.
As to `NCCc1cccc2[nH]c(CNc3nc(N4CCOCC4)nc4c(Br)cnn34)nc12` [Example 112, N-{[7-(2-aminoethyl)-1H-benzimidazol-2-yl]methyl}-8-bromo-2-(morpholin-4-yl)pyrazolo[1,5-a][1,3,5]triazin-4-amine], the IC50 came to 6.68 µM at CDK12/CycK and 4.34 µM on CDK2/CycE.
As to `C[C@H]1CN(c2nc(NCc3nnc(-c4cccc(F)c4)[nH]3)n3ncc(Br)c3n2)CCN1C` [Example 154, 8-bromo-2-[(3S)-3,4-dimethylpiperazin-1-yl]-N-{[5-(3-fluorophenyl)-4H-1,2,4-triazol-3-yl]methyl}pyrazolo[1,5-a][1,3,5]triazin-4-amine], the IC50 at CDK12/CycK worked out at 7.17 µM; on CDK2/CycE, 4.47 µM.
